# Test results taken from ChEMBL document CHEMBL4765284, “Optimization of 5-substituted thiazolyl ureas and 6-substituted imidazopyridines as potential HIV-1 latency reversing agents” (Eur J Med Chem, 2020).
# pEC50: −log10 of the molar value.
# Legend:
# [1] = system: Human immunodeficiency virus 1; test: Antiviral activity against HIV-1 infected in FlpIn-HEK293 cells assessed as maximal activation of long terminal repeat driven gene expression at 5 uM incubated for 48 hrs by luciferase based cellular assay relative to control; assay type: functional
# [2] = Aqueous solubility of compound at pH 2 by nephelometry; assay type: physicochemical
# [3] = Metabolic stability in human liver microsomes assessed as intrinsic clearance at 1 uM measured upto 60 mins by LC-MS analysis; assay type: ADME, Microsome; conditions: read-out: CLH
# [4] = Metabolic stability in mouse liver microsomes assessed as half life at 1 uM measured upto 60 mins by LC-MS anlaysis; assay type: ADME, Microsome
# [5] = system: Human immunodeficiency virus 1; test: Antiviral activity against HIV-1 infected in FlpIn-HEK293 cells assessed as activation of long terminal repeat driven gene expression incubated for 72 hrs by luciferase based cellular assay; assay type: functional, organism-based; conditions: Human immunodeficiency virus 1, HEK293, 72 h
# [6] = system: Human immunodeficiency virus 1; test: Antiviral activity against HIV-1 infected in J-Lat 10.6 cells assessed as maximal activation of long terminal repeat driven gene expression at 1 uM incubated for 48 hrs by green fluorescent protein based cellular assay relative to control; assay type: functional
# [7] = Metabolic stability in mouse liver microsomes assessed as intrinsic clearance at 1 uM measured upto 60 mins by LC-MS anlaysis; assay type: ADME, Microsome; conditions: read-out: CLH
# [8] = Metabolic stability in human liver microsomes assessed as half life at 1 uM measured upto 60 mins by LC-MS anlaysis; assay type: ADME, Microsome
# Cytomegalovirus = test: Antiviral activity against CMV infected in FlpIn-HEK293 cells assessed as click beetle green reporter driven gene expression incubated for 72 hrs by luciferase based cellular assay; assay type: functional, organism-based; conditions: HEK293, 72 h
# [9] = Cytotoxicity against human HepG2 cells assessed as growth incubation incubated for 48 hrs by cell titer glo assay; assay type: cell-based
# [10] = system: Human immunodeficiency virus 1; test: Antiviral activity against HIV-1 infected in J-Lat 10.6 cells assessed as maximal activation of long terminal repeat driven gene expression incubated for 48 hrs by green fluorescent protein based cellular assay; assay type: functional, organism-based; conditions: Human immunodeficiency virus 1, J-Lat 10.6, 48 h
# [11] = Aqueous solubility of compound at pH 6.5 by nephelometry; assay type: physicochemical
# [12] = system: Human immunodeficiency virus 1; test: Antiviral activity against HIV-1 infected in J-Lat 10.6 cells assessed as maximal activation of long terminal repeat driven gene expression at 0.25 uM incubated for 48 hrs by green fluorescent protein based cellular assay relative to control; assay type: functional
# [13] = system: Human immunodeficiency virus 1; test: Antiviral activity against HIV-1 infected in FlpIn-HEK293 cells assessed as maximal activation of long terminal repeat driven gene expression at 0.31 uM incubated for 48 hrs by luciferase based cellular assay relative to control; assay type: functional
# [14] = system: Human immunodeficiency virus 1; test: Antiviral activity against HIV-1 infected in FlpIn-HEK293 cells assessed as maximal activation of long terminal repeat driven gene expression at 0.09 uM incubated for 48 hrs by luciferase based cellular assay relative to control; assay type: functional
# [15] = system: Human immunodeficiency virus 1; test: Antiviral activity against HIV-1 infected in J-Lat 10.6 cells assessed as maximal activation of long terminal repeat driven gene expression at 0.06 uM incubated for 48 hrs by green fluorescent protein based cellular assay relative to control; assay type: functional
# [16] = system: Human immunodeficiency virus 1; test: Antiviral activity against HIV-1 infected in J-Lat 10.6 cells assessed as maximal activation of long terminal repeat driven gene expression at 2 uM incubated for 48 hrs by green fluorescent protein based cellular assay relative to control; assay type: functional
# [17] = system: Human immunodeficiency virus 1; test: Antiviral activity against HIV-1 infected in FlpIn-HEK293 cells assessed as maximal activation of long terminal repeat driven gene expression at 0.63 uM incubated for 48 hrs by luciferase based cellular assay relative to control; assay type: functional
# [18] = system: Human immunodeficiency virus 1; test: Antiviral activity against HIV-1 infected in FlpIn-HEK293 cells assessed as maximal activation of long terminal repeat driven gene expression at 0.25 uM incubated for 48 hrs by luciferase based cellular assay relative to control; assay type: functional
# Cyclin-T2 (Homo sapiens) = Cyclin-T2 (Homo sapiens) (UniProt O60583); test: Inhibition of cyclin T2 (unknown origin) at 0.5 uM
# Cyclin-T1 (Homo sapiens) = Cyclin-T1 (Homo sapiens) (UniProt O60563); test: Inhibition of cyclin T1 (unknown origin) at 0.5 uM
# [19] = molecular target: Cyclin-dependent kinase 9 (Homo sapiens) (UniProt P50750); test: Inhibition of CDK9 (unknown origin) at 0.5 uM
# Cyclin-K (Homo sapiens) = molecular target: T1, Cyclin-K (Homo sapiens) (UniProt O75909); test: Inhibition of cyclin K (unknown origin) at 0.5 uM
# T1 sequence (whole entry): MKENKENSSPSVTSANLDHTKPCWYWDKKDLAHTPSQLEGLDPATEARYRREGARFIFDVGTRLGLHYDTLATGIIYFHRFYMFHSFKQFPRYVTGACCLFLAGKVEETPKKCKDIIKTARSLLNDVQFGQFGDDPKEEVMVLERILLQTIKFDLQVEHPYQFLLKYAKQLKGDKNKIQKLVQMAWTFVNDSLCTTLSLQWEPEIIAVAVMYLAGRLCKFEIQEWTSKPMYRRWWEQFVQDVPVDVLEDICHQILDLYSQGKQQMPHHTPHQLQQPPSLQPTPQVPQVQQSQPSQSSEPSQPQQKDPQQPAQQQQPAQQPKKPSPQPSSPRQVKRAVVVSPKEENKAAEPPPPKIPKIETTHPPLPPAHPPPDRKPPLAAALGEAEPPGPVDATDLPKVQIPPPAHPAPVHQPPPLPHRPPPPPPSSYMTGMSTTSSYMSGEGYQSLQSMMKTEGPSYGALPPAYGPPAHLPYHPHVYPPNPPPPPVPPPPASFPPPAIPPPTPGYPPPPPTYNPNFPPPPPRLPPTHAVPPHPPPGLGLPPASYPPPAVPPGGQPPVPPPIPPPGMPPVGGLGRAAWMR
# [20] = system: Human immunodeficiency virus 1; test: Antiviral activity against HIV-1 infected in FlpIn-HEK293 cells assessed as maximal activation of long terminal repeat driven gene expression at 0.13 uM incubated for 48 hrs by luciferase based cellular assay relative to control; assay type: functional
# [21] = system: Human immunodeficiency virus 1; test: Antiviral activity against HIV-1 infected in J-Lat 10.6 cells assessed as maximal activation of long terminal repeat driven gene expression at 0.13 uM incubated for 48 hrs by green fluorescent protein based cellular assay relative to control; assay type: functional
# [22] = system: Human immunodeficiency virus 1; test: Antiviral activity against HIV-1 infected in FlpIn-HEK293 cells assessed as maximal activation of long terminal repeat driven gene expression at 0.16 uM incubated for 48 hrs by luciferase based cellular assay relative to control; assay type: functional
# [23] = system: Human immunodeficiency virus 1; test: Antiviral activity against HIV-1 infected in FlpIn-HEK293 cells assessed as maximal activation of long terminal repeat driven gene expression at 1.3 uM incubated for 48 hrs by luciferase based cellular assay relative to control; assay type: functional
# [24] = system: Human immunodeficiency virus 1; test: Antiviral activity against HIV-1 infected in J-Lat 10.6 cells assessed as maximal activation of long terminal repeat driven gene expression at 20 uM incubated for 48 hrs by green fluorescent protein based cellular assay relative to control; assay type: functional
# Chain of Cyclin-T2 (Homo sapiens) (O60583 whole entry): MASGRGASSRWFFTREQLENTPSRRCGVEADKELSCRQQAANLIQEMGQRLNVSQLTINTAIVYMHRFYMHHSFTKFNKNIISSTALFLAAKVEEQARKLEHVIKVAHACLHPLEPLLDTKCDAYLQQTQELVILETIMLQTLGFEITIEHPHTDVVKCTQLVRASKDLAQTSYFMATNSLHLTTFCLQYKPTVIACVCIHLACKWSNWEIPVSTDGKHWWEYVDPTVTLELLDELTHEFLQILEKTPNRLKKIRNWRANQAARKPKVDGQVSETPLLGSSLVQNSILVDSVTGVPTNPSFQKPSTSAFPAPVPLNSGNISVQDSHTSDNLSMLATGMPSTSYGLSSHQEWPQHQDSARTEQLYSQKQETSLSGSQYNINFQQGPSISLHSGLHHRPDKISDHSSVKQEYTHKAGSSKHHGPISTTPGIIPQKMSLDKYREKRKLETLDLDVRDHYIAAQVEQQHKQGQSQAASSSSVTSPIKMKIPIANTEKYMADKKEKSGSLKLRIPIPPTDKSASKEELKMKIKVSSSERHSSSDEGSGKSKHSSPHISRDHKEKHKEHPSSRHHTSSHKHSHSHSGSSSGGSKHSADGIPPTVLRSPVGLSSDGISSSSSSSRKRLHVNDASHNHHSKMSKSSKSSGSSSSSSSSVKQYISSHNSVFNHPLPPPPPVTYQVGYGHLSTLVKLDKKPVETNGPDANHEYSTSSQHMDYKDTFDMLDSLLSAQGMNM
# Chain of Cyclin-T1 (Homo sapiens) (O60563 whole entry): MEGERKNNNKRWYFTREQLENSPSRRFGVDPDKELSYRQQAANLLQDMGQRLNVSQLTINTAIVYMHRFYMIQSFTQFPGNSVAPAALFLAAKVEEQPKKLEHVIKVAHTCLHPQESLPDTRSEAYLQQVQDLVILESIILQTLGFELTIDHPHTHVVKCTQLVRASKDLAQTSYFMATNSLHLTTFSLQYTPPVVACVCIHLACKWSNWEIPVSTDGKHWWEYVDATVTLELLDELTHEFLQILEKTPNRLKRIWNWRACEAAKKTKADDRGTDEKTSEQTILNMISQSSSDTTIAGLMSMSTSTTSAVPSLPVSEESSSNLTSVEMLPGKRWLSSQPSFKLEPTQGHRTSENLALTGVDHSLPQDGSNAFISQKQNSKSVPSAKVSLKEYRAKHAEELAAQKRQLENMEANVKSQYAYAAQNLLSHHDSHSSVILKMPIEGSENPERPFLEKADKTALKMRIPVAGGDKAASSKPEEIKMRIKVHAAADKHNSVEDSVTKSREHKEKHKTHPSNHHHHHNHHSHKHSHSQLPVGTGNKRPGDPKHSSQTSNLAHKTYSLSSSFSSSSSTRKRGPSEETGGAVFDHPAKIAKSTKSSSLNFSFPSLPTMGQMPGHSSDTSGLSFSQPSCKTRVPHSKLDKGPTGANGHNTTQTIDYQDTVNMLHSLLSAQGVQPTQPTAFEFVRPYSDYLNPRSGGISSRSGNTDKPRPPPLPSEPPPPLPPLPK
# Chain of Cyclin-dependent kinase 9 (Homo sapiens) (P50750 whole entry): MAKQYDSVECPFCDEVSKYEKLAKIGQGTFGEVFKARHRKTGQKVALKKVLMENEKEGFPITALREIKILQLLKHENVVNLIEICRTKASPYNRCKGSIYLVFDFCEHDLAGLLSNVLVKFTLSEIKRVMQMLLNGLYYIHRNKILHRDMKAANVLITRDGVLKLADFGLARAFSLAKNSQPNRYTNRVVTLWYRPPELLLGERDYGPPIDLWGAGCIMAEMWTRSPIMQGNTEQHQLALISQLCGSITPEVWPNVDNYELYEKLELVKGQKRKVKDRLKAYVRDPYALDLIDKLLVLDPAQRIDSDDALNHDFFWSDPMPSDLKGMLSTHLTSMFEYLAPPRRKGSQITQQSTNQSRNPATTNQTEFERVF
smiles,measurement,setting,value
N#Cc1cnc(NC(=O)N2CCN(c3ccc(Cl)c(Cl)c3)CC2)s1,%max,[1],87%
same,solubility kinetic,[2],< 1.6 µM
same,microsomal CLint at 1 µM,[3],11 µL/min/mg
same,half-life at 1 µM,[4],117 min
same,pEC50,[5],6.46
same,%max,[6],30%
same,microsomal CLint at 1 µM,[7],15 µL/min/mg
same,half-life at 1 µM,[8],151 min
same,pEC50,Cytomegalovirus,5.36
same,CC50 at 48 h,[9],410 nM
same,pEC50,[10],5.80
same,solubility kinetic,[11],< 1.6 µM
N#Cc1cccc(N2CCN(C(=O)Nc3ncc(Cl)s3)CC2)c1,%max,[12],28%
same,%max,[13],22%
same,solubility kinetic,[2],< 1.6 µM
same,half-life at 1 µM,[4],46 min
same,pEC50,[5],6.21
same,microsomal CLint at 1 µM,[7],38 µL/min/mg
same,pEC50,Cytomegalovirus,6.30
same,CC50 at 48 h,[9],50 nM
same,pEC50,[10],6.32
same,solubility kinetic,[11],< 1.6 µM
Clc1cnc2[nH]c(N3CCN(c4cnc(Cl)c(Cl)c4)CC3)nc2c1,solubility kinetic,[2],25 µM
same,half-life at 1 µM,[4],13 min
same,pEC50,[5],7.10
same,microsomal CLint at 1 µM,[7],132 µL/min/mg
same,pEC50,Cytomegalovirus,4.57
same,CC50 at 48 h,[9],40 nM
same,pEC50,[10],4.62
same,%max,[14],57%
same,%max,[15],28%
same,solubility kinetic,[11],1.6 µM
Cc1cc(NC2CCN(C(=O)Nc3ncc(Cl)s3)C2)ccc1Cl (stereo not given),solubility kinetic,[2],6.3 µM
same,half-life at 1 µM,[4],11 min
same,pEC50,[5],6.10
same,%max,[16],20%
same,microsomal CLint at 1 µM,[7],151 µL/min/mg
same,pEC50,Cytomegalovirus,5.74
same,CC50 at 48 h,[9],680 nM
same,pEC50,[10],5.52
same,%max,[17],39%
same,solubility kinetic,[11],1.6 µM
Cc1ccc(N2CCN(C(=O)Nc3ncc(Cl)s3)CC2)cc1Cl,solubility kinetic,[2],< 1.6 µM
same,half-life at 1 µM,[4],33 min
same,pEC50,[5],6.62
same,%max,[18],53%
same,%max,[6],23%
same,inhibition,Cyclin-T2 (Homo sapiens),40%
same,inhibition,Cyclin-T1 (Homo sapiens),40%
same,microsomal CLint at 1 µM,[7],53 µL/min/mg
same,pEC50,Cytomegalovirus,6.17
same,CC50 at 48 h,[9],250 nM
same,inhibition,[19],40%
same,pEC50,[10],5.77
same,inhibition,Cyclin-K (Homo sapiens),40%
same,solubility kinetic,[11],< 1.6 µM
Cc1ccc(N2CCN(C(=O)Nc3ncc(Cl)s3)CC2=O)cc1Cl,%max,[13],47%
same,solubility kinetic,[2],1.6 µM
same,half-life at 1 µM,[4],60 min
same,pEC50,[5],6.19
same,%max,[16],38%
same,microsomal CLint at 1 µM,[7],29 µL/min/mg
same,pEC50,Cytomegalovirus,4.89
same,CC50 at 48 h,[9],42000 nM
same,pEC50,[10],5.57
same,solubility kinetic,[11],1.6 µM
O=C(Nc1ncc(Cl)s1)N1CCN(c2cnc(Cl)c(Cl)c2)CC1,solubility kinetic,[2],< 1.6 µM
same,microsomal CLint at 1 µM,[3],25 µL/min/mg
same,half-life at 1 µM,[4],55 min
same,pEC50,[5],7.10
same,inhibition,Cyclin-T2 (Homo sapiens),60%
same,inhibition,Cyclin-T1 (Homo sapiens),60%
same,microsomal CLint at 1 µM,[7],32 µL/min/mg
same,half-life at 1 µM,[8],70 min
same,pEC50,Cytomegalovirus,7.15
same,CC50 at 48 h,[9],40 nM
same,%max,[20],65%
same,inhibition,[19],60%
same,%max,[21],26%
same,pEC50,[10],6.54
same,inhibition,Cyclin-K (Homo sapiens),60%
same,solubility kinetic,[11],< 1.6 µM
N#Cc1cnc(NC(=O)N2CCN(c3cnc(Cl)c(Cl)c3)CC2)s1,%max,[12],28%
same,solubility kinetic,[2],< 1.6 µM
same,half-life at 1 µM,[4],80 min
same,%max,[22],25%
same,pEC50,[5],6.41
same,microsomal CLint at 1 µM,[7],22 µL/min/mg
same,pEC50,Cytomegalovirus,6.82
same,CC50 at 48 h,[9],120 nM
same,pEC50,[10],5.96
same,solubility kinetic,[11],< 1.6 µM
Cc1cc(OCCCC(=O)Nc2ncc(Cl)s2)ccc1Cl,%max,[23],39%
same,%max,[24],15%
same,pEC50,[10],4.54
Clc1cnc2[nH]c(CCCOc3cnc(Cl)c(Cl)c3)nc2c1,solubility kinetic,[2],12.5 µM
same,half-life at 1 µM,[4],14 min
same,pEC50,[5],5.19
same,%max,[16],11%
same,microsomal CLint at 1 µM,[7],122 µL/min/mg
same,pEC50,Cytomegalovirus,5.62
same,CC50 at 48 h,[9],1900 nM
same,%max,[20],26%
same,pEC50,[10],< 5.40
same,solubility kinetic,[11],1.6 µM
